Legend:
Test in all cases: relative viability (nuclei count vs DMSO), 5 days (fraction); higher = more cells survive
Crenolanib + OSI-027 = compound: CC1(COc2ccc3c(c2)ncn3-c2ccc3cccc(N4CCC(N)CC4)c3n2)COC1 [Crenolanib] + COc1cccc2cc(-c3nc([C@H]4CC[C@H](C(=O)O)CC4)n4ncnc(N)c34)[nH]c12 [OSI-027] (partner 0.5 µM)
How it was run: (§1)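 Each reported value is a median over duplicate plates. It expresses relative viability: treated-well nuclei count divided by vehicle-well nuclei count. Lung cancer cell lines in 1536-well plates were dosed by pin tool a day after seeding, alone with one drug or with a fixed anchor-drug dose plus five library-drug doses (not always all listed) in √10 steps, and nuclei were counted after 5 days.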

Tivantinib + Lapatinib = compound: O=C1NC(=O)[C@@H](c2cn3c4c(cccc24)CCC3)[C@@H]1c1c[nH]c2ccccc12 [Tivantinib] + CS(=O)(=O)CCNCc1ccc(-c2ccc3ncnc(Nc4ccc(OCc5cccc(F)c5)c(Cl)c4)c3c2)o1 [Lapatinib] (partner 2 µM)
How it was run: as §1

Tivantinib + AZD7762 = compound: O=C1NC(=O)[C@@H](c2cn3c4c(cccc24)CCC3)[C@@H]1c1c[nH]c2ccccc12 [Tivantinib] + NC(=O)Nc1cc(-c2cccc(F)c2)sc1C(=O)N[C@H]1CCCNC1 [AZD7762] (partner 0.2 µM)
How it was run: as §1

Tivantinib + Luminespib = compound: O=C1NC(=O)[C@@H](c2cn3c4c(cccc24)CCC3)[C@@H]1c1c[nH]c2ccccc12 [Tivantinib] + CCNC(=O)c1noc(-c2cc(C(C)C)c(O)cc2O)c1-c1ccc(CN2CCOCC2)cc1 [Luminespib] (partner 0.01 µM)
How it was run: as §1

Cell Line | relative viability (Crenolanib + OSI-027; first compound 0.01 µM) | relative viability (Crenolanib + OSI-027; first compound 0.03162 µM) | relative viability (Crenolanib + OSI-027; first compound 0.1 µM) | relative viability (Crenolanib + OSI-027; first compound 0.3162 µM) | relative viability (Crenolanib + OSI-027; first compound 1 µM) | relative viability (Tivantinib + Lapatinib; first compound 0.01 µM) | relative viability (Tivantinib + Lapatinib; first compound 0.03162 µM) | relative viability (Tivantinib + Lapatinib; first compound 0.1 µM) | relative viability (Tivantinib + Lapatinib; first compound 0.3162 µM) | relative viability (Tivantinib + AZD7762; first compound 0.01 µM) | relative viability (Tivantinib + AZD7762; first compound 0.03162 µM) | relative viability (Tivantinib + AZD7762; first compound 0.1 µM) | relative viability (Tivantinib + AZD7762; first compound 0.3162 µM) | relative viability (Tivantinib + Luminespib; first compound 0.01 µM) | relative viability (Tivantinib + Luminespib; first compound 0.03162 µM) | relative viability (Tivantinib + Luminespib; first compound 0.1 µM) | relative viability (Tivantinib + Luminespib; first compound 0.3162 µM)
HCC-366 | 0.978 | 0.861 | 0.837 | 0.893 | 0.75 | 0.89 | 1.03 | 0.99 | 1.03 | 0.229 | 0.403 | 0.316 | 0.237 |  |  |  | 
HCC-827 | 0.793 | 0.691 | 0.742 | 0.885 | 0.821 | 0.213 | 0.211 | 0.176 | 0.165 | 0.186 | 0.238 | 0.297 |  | 0.472 | 0.661 | 0.699 | 0.378
IA-LM |  |  |  |  |  | 0.871 | 0.882 | 0.669 | 0.771 |  |  |  |  |  |  |  | 
LCLC-103H | 0.443 | 0.507 | 0.397 | 0.466 | 0.384 |  |  |  |  | 0.808 | 0.702 | 0.684 | 0.793 | 1.02 | 0.938 | 0.976 | 0.856
NCI-H441 | 0.929 | 0.6 | 0.507 | 0.539 | 0.463 |  |  |  |  | 1.04 | 1.22 | 1.11 | 1.03 | 0.343 | 0.359 | 0.27 | 0.337
NCI-H520 | 0.245 | 0.284 | 0.311 | 0.306 | 0.318 | 0.893 | 0.822 | 0.638 | 0.795 |  |  |  |  | 0.212 | 0.218 | 0.209 | 0.198
NCI-H522 | 0.936 | 0.708 | 0.728 | 0.655 | 0.72 |  |  |  |  | 0.829 | 0.812 | 0.864 | 0.612 | 1.33 | 0.989 | 0.93 | 0.685
NCI-H661 | 0.757 | 0.721 | 0.744 | 0.854 | 0.776 | 0.579 | 0.46 | 0.474 |  |  |  |  |  | 0.936 | 0.93 | 0.954 | 0.799
NCI-H1299 |  |  |  |  |  | 0.967 | 0.952 | 0.988 | 0.924 |  |  |  |  |  |  |  | 
NCI-H1563 | 0.768 | 0.807 | 0.764 | 0.752 | 0.748 | 1.05 | 0.894 | 0.831 | 0.908 |  |  |  |  | 0.52 | 0.517 | 0.478 | 0.534
NCI-H1648 | 0.245 | 0.271 | 0.247 | 0.26 | 0.251 |  |  |  |  |  | 0.61 | 0.767 | 0.479 |  |  |  | 
NCI-H1650 | 0.666 | 0.696 | 0.691 | 0.667 | 0.46 | 0.879 | 0.547 | 0.702 | 0.861 |  |  |  |  | 0.203 | 0.191 | 0.203 | 0.192
NCI-H1703 |  |  |  |  |  | 1.3 | 0.94 | 1.06 | 1.06 | 0.159 | 0.152 | 0.114 | 0.124 |  |  |  | 
NCI-H2009 | 0.766 | 0.636 | 0.623 | 0.688 | 0.581 | 0.917 | 0.595 | 0.914 | 0.958 |  |  |  |  | 0.989 | 1.08 | 0.985 | 1.1
NCI-H2023 | 0.466 | 0.426 | 0.378 | 0.434 | 0.292 | 0.884 | 0.735 | 0.703 | 0.577 |  |  |  |  | 0.867 | 0.82 | 0.673 | 0.528
NCI-H2228 | 0.6 | 0.495 | 0.513 | 0.687 | 0.578 | 1.12 | 1.08 | 1.07 | 0.676 |  |  |  |  |  | 0.152 | 0.168 | 0.125
NCI-H2342 | 0.704 | 0.599 | 0.592 | 0.726 | 0.594 |  |  |  |  | 0.505 | 0.515 | 0.432 | 0.39 | 0.741 | 0.739 | 0.716 | 0.598
SK-LU-1 | 0.386 | 0.385 | 0.218 | 0.372 | 0.349 | 1.06 | 0.856 | 0.835 | 0.855 |  |  |  |  | 0.183 | 0.218 | 0.197 | 0.199
SK-MES-1 | 0.598 | 0.657 | 0.508 | 0.581 | 0.599 | 0.441 | 0.426 | 0.387 | 0.417 |  |  |  |  | 0.763 | 0.747 |  | 0.828
SW 900 | 0.677 | 0.575 | 0.46 | 0.657 | 0.342 |  |  |  |  | 0.682 | 0.464 | 0.5 | 0.496 | 0.191 | 0.177 | 0.162 | 0.145
SW 1573 | 0.667 | 0.664 | 0.51 | 0.493 | 0.578 | 1.16 | 0.97 | 0.928 | 1.07 |  |  |  |  | 0.263 | 0.525 | 0.17 | 0.271
UMC-11 | 0.523 | 0.535 | 0.538 | 0.546 | 0.514 | 1.03 | 0.673 | 1.03 | 1.08 |  |  |  |  | 0.927 | 1.02 | 0.928 | 1.13
